Experimental data taken from patent US9828375B2, “4-position substituted pyrazolopyrimidine derivative, and use thereof in drug preparation” (Guangxi Wuzhou Pharmaceuticals (Group) Co., Ltd., priority 2012, dated 2017).

Columns and labels:
Abl/Abl (T315I)(h) = assay: Kinase inhibition activity test, isotope labeling: Abl; assay type: biochemical, human; conditions: test compound at a concentration of 10 μM
Method: (§1) The purpose of this experiment was to test the inhibitory activity of the compound of the invention for in vitro kinase with the isotope labeling method (the γ phosphate group on ATP was labeled). In this experiment, the in vitro activity inhibition of such kinases as FLT3, VEGFR2, FLT1, FLT4, RET, c-RAF, B-RAF, c-KIT, PDGFα, PDGFβ, FGFR2, FGFR1, EphA2, EphB2, SRC, ABL, ALK and Met was tested respectively. Staurosporine was reference molecule (or referred to as positive control). The kinase inhibition activity of the test compound was expressed by half-inhibitory concentration (IC50) or the kinase activity inhibition rate of the test compound at a concentration of 10 μM. The IC50 value could be obtained by calculating the kinase activity inhibition rate of the test compound at different concentrations.
(§2) 20 mM 3-(N-morpholinyl)propanesulfonic acid (MOPS); 1 mM ethylenediaminetetraacetic acid (EDTA), 0.01% Brij 35 (Brij-35), 5% glycerol, 0.1% mercaptoethanol, 1 mg/mL bovine serum albumin (BSA), 10 mM manganous dichloride solution (MnCl2), 0.1 mg/mL glutamic acid/tyrosine (4:1) polypeptide (poly(Glu, Tyr)4:1), 50 μM EAIYAAPFAKKK (substrate of FLT3), 0.33 mg/mL myelin basic protein (substrate of VEGFR2), 250 μM KKKSPGEYVNIEFG (substrate of FLT1(h)), 500 μM GGEEEEYFELVKKKK (substrate of FLT4(h)), 250 μM KKKSPGEYVNIEFG (substrate of RET), 0.66 mg/mL myelin basic protein (substrate of C-RAF), 250 μM GGMEDIYFEFMGGKKK (substrate of c-Kit), 250 μM GGMEDIYFEFMGGKKK (substrate of PDGFα), 250 μM KKKSPGEYVNIEFG (substrate of FGFR1), […] GGEEEEYFELVKKKK (substrate of SRC), 50 μM EAIYAAPFAKKK (substrate of ABL), 250 μM KKKSPGEYVNIEFG (substrate of ALK), 250 μM KKKSPGEYVNIEFG (substrate of Met(h)), 10 mM magnesium acetate and γ-^33 P-ATP solution, stop buffer (3% phosphate buffer), washing buffer (75 mM phosphate solution), methanol, Filtermat A membrane, FLT3, VEGFR2, FLT3, VEGFR2, FLT1, FLT4, RET, c-RAF, B-RAF, c-KIT, PDGFRα, PDGFRβ, FGFR2, FGFR1, EphA2, EphB2, SRC, ABL, ALK, Met and other kinases, and the test compounds.
(§3) Buffers (8 mM MOPS with pH value of 7.0, 0.2 mM EDTA and 10 mM MnCl2), (5-10 mU) kinases to be tested (FLT3, VEGFR2, FLT1, FLT4, RET, c-RAF, B-RAF, c-KIT, PDGFRα, PDGFRβ, FGFR2, FGFR1, EphA2, EphB2, SRC, ABL, ALK and Met), substrates of kinases to be tested (refer to experimental materials), 10 mM magnesium acetate and γ-^33 P-ATP solution, and test compounds at different concentrations were added to a reaction tube orderly. […] Reaction was terminated with 5 μL 3% phosphate buffer finally, and 10 μL reaction solution was titrated to the Filtermat A membrane; solution was washed for 3 times with 75 mM phosphate solution with each time lasting 5 minutes, and then washed once with methanol. Finally, the Filtermat A membrane was dried, and scintillation counting was performed on the membrane, with scintillation count reflecting the phosphorylation degree of the substrates, so that the activity inhibition of kinase could be characterized.

PDGFRβ = PDGFRβ (Homo sapiens, UniProt P09619); assay: Kinase inhibition activity test, isotope labeling: PDGFRβ; assay type: biochemical; conditions: ATP 200 μM; read-out: PDGFRβ IC50 value (inhibitory activity value)
Method: as §1, §2
as §3, with “Finally, the Filtermat A membrane was dried, and scintillation counting was performed on the membrane, with scintillation count reflecting the phosphorylation degree of the substrates, so that the activity inhibition of kinase could be characterized.” left out

EphB2 = target: T1, EphB2 (Homo sapiens, UniProt P29323); assay: Kinase inhibition activity test, isotope labeling: EphB2; assay type: biochemical; conditions: ATP 10 μM; read-out: EphB2 IC50 value (inhibitory activity value)
T1 sequence (P29323 19-1055): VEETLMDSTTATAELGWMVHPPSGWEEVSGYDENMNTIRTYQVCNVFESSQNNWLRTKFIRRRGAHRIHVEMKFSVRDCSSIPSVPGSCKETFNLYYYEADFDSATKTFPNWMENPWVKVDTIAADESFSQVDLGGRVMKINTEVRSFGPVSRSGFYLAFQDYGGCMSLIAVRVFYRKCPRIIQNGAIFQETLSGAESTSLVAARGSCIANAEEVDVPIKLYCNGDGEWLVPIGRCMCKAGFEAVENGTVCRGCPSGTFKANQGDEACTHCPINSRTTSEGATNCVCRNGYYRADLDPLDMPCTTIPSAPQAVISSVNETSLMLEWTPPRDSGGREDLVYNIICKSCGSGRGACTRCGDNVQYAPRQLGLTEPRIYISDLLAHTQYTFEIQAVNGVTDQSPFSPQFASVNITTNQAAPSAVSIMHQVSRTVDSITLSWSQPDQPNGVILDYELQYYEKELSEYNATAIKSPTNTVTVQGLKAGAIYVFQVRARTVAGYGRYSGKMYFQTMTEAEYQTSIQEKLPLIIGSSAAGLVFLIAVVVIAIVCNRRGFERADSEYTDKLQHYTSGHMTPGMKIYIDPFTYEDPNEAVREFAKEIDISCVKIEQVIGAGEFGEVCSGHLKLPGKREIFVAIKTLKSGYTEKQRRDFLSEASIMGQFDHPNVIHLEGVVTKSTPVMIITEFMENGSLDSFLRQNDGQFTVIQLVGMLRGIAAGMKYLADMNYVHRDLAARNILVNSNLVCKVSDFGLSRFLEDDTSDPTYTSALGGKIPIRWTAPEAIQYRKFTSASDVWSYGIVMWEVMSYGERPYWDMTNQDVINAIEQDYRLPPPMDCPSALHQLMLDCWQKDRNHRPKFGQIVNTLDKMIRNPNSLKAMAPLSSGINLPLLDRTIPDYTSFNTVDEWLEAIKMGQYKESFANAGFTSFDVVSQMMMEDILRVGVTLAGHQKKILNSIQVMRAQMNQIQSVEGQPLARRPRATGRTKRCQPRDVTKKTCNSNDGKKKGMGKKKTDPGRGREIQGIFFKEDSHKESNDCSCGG
Method: as §1, §2
as §3, with “Finally, the Filtermat A membrane was dried, and scintillation counting was performed on the membrane, with scintillation count reflecting the phosphorylation degree of the substrates, so that the activity inhibition of kinase could be characterized.” left out

EphA2 = EphA2 (Homo sapiens, UniProt P29317); assay: Kinase inhibition activity test, isotope labeling: EphA2; assay type: biochemical; conditions: ATP 155 μM; read-out: EphA2 IC50 value (inhibitory activity value)
Method: as §1, §2
as §3, with “Finally, the Filtermat A membrane was dried, and scintillation counting was performed on the membrane, with scintillation count reflecting the phosphorylation degree of the substrates, so that the activity inhibition of kinase could be characterized.” left out

SRC = SRC (Homo sapiens, UniProt P12931); assay: Kinase inhibition activity test, isotope labeling: SRC; assay type: biochemical; conditions: ATP 45 μM; read-out: SRC IC50 value (inhibitory activity value)
Method: as §1, §2
as §3, with “Finally, the Filtermat A membrane was dried, and scintillation counting was performed on the membrane, with scintillation count reflecting the phosphorylation degree of the substrates, so that the activity inhibition of kinase could be characterized.” left out

FGFR1 = FGFR1 (Homo sapiens, UniProt P11362); assay: Kinase inhibition activity test, isotope labeling: FGFR1; assay type: biochemical; conditions: ATP 200 μM; read-out: FGFR1 IC50 value (inhibitory activity value)
Method: as §1, §2
as §3, with “Finally, the Filtermat A membrane was dried, and scintillation counting was performed on the membrane, with scintillation count reflecting the phosphorylation degree of the substrates, so that the activity inhibition of kinase could be characterized.” left out

Chain of PDGFRβ (P09619 33-1106): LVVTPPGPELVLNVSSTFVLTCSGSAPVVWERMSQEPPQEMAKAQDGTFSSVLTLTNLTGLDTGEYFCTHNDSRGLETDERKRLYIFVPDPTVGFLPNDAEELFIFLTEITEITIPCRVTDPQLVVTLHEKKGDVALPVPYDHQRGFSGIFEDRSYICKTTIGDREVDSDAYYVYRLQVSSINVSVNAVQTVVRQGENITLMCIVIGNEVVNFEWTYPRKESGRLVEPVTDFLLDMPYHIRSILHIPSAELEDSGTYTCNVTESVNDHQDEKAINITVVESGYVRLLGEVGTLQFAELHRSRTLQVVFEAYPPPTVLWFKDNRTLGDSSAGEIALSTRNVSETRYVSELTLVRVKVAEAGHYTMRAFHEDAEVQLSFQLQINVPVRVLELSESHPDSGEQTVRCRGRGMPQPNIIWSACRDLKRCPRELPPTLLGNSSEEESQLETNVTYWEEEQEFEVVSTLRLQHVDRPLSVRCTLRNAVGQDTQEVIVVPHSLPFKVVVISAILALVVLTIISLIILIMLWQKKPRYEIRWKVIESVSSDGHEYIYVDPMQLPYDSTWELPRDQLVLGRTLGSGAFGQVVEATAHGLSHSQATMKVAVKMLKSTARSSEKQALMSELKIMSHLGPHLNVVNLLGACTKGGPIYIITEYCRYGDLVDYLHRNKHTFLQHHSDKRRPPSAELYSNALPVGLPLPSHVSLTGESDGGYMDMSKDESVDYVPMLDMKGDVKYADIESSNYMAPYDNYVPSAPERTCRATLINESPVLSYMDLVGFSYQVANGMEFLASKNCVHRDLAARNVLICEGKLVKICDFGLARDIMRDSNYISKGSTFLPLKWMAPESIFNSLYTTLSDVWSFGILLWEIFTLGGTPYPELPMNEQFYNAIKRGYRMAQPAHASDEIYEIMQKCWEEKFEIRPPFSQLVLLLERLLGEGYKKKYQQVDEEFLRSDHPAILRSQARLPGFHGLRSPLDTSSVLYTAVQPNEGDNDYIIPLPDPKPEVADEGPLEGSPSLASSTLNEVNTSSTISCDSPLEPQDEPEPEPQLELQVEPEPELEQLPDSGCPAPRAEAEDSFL
Chain of EphA2 (P29317 24-976): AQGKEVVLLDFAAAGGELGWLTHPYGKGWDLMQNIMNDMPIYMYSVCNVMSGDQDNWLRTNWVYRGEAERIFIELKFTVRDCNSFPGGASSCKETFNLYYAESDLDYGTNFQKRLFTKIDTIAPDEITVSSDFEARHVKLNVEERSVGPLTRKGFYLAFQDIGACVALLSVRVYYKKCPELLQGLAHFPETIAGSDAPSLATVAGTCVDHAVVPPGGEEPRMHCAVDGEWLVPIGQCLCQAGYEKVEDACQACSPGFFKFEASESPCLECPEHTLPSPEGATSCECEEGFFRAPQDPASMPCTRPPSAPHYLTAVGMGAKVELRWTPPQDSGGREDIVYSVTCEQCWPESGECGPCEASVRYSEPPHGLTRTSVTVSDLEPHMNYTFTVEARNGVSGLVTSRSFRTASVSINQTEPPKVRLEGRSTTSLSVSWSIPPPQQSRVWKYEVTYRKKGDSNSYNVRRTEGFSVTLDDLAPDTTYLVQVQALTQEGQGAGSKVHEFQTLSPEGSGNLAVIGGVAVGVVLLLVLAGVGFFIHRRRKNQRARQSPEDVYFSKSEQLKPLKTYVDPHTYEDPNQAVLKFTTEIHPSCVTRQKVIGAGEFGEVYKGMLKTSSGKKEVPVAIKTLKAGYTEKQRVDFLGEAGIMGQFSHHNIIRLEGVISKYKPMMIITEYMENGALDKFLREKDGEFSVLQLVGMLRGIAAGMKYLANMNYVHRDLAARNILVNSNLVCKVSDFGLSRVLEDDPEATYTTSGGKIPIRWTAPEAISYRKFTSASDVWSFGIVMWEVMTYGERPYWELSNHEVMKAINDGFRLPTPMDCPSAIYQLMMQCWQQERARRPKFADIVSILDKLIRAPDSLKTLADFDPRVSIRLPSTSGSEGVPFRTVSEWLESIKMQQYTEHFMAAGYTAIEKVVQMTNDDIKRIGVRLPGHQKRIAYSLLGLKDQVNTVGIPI
Chain of SRC (P12931 whole entry): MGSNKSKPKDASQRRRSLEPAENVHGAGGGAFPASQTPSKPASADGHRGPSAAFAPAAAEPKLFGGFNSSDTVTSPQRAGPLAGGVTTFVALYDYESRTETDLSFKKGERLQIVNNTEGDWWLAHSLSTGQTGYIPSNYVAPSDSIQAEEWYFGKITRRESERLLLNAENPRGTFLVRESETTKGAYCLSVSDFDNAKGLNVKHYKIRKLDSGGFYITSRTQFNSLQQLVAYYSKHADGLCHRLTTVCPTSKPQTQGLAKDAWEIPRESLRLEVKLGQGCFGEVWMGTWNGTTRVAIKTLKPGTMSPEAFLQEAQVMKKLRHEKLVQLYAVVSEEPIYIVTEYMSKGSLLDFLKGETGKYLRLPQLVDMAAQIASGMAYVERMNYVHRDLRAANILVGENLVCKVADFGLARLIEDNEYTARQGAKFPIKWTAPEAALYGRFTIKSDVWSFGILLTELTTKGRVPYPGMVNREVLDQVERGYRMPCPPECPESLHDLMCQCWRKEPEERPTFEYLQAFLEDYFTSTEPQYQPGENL
Chain of FGFR1 (P11362 22-822): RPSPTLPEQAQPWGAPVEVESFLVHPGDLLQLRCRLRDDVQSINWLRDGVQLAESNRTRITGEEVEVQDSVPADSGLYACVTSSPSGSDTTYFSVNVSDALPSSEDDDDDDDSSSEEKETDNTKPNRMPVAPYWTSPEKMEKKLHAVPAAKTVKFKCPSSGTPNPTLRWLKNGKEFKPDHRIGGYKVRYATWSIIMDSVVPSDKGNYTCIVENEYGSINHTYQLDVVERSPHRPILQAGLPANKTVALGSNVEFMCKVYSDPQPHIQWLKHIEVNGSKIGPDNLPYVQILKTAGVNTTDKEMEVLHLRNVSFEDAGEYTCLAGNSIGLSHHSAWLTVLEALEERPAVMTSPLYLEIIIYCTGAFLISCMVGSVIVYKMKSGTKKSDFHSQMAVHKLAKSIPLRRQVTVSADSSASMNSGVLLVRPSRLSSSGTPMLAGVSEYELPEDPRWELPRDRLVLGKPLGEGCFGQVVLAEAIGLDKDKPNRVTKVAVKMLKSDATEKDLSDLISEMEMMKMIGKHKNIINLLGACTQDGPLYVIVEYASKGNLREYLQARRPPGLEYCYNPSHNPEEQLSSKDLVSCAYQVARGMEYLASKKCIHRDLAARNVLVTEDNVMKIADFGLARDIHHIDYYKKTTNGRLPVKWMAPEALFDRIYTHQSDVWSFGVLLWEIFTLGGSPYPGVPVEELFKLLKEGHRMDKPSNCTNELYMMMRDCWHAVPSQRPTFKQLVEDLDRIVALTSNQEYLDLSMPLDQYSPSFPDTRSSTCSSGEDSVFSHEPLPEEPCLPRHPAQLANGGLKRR

| Activity inhibition rate Abl/Abl (T315I)(h) (Abl/Abl (T315I)(h)) [%] | Compound | further results |
| --- | --- | --- |
| 34 | 1-(4-((1H-pyrazolopyrimidine-4-yl)oxy)-3-fluorophenyl)-3-(3-trifluoromethoxy)phenyl)urea [4a-8] |  |
| 19 | 1-(4-((1H-pyrazolopyrimidine-4-yl)oxy)phenyl)-3-(methylcyclohexyl)urea [4a-20] |  |
| 17 | O=C(Nc1ccc(Oc2ncnc3[nH]ncc23)cc1)Nc1ccc(C(F)(F)F)cc1 [4a-1] |  |
| 86 | O=C(Nc1ccc(Oc2ncnc3[nH]ncc23)cc1)Nc1ccc(Cl)c(C(F)(F)F)c1 [4a-2] | IC50 (PDGFRβ): 0.408 µM; IC50 (EphB2): < 10 µM; IC50 (EphA2): < 10 µM; IC50 (SRC): < 10 µM; IC50 (FGFR1): < 10 µM |
| 60 | CC(C)c1cccc(NC(=O)Nc2ccc(Oc3ncnc4[nH]ncc34)c(F)c2)c1 [4a-7, 1-(4-((1H-pyrazolopyrimidine-4-yl)oxy)-3-fluorophenyl)-3-(3-isopropylphenyl)urea] |  |
| 15 | O=C(Nc1ccc(C(F)(F)F)cc1)Nc1ccc(Oc2ncnc3[nH]ncc23)c(F)c1 [4a-9, 1-(4-((1H-pyrazolopyrimidine-4-yl)oxy)-3-fluorophenyl)-3-(4-(trifluoromethyl)phenyl)urea] |  |
| 67 | O=C(Nc1ccc(Oc2ncnc3[nH]ncc23)c(F)c1)Nc1ccc(Cl)c(C(F)(F)F)c1 [4a-10, 1-(4-((1H-pyrazolopyrimidine-4-yl)oxy)-3-fluorophenyl)-3-(4-chloro-3-(trifluoromethyl)phenyl)urea] |  |
| 78 | O=C(Nc1ccc(Oc2ncnc3[nH]ncc23)cc1)Nc1cc(C(F)(F)F)cc(C(F)(F)F)c1 [4a-12, 1-(4-((1H-pyrazolopyrimidine-4-yl)oxy)phenyl)-3-(3,5-bis(trifluoromethyl)phenyl)urea] |  |
| 27 | O=C(Nc1ccc(Oc2ncnc3[nH]ncc23)cc1)Nc1ccc(C(F)(F)F)cc1Cl [4a-13] |  |
| 99 | O=C(Nc1ccccc1)Nc1ccc(Oc2ncnc3[nH]ncc23)cc1 [4a-15, 1-(4-((1H-pyrazolopyrimidine-4-yl)oxy)phenyl)-3-phenylurea] |  |
| 45 | C[C@H](NC(=O)Nc1ccc(Oc2ncnc3[nH]ncc23)cc1)c1ccccc1 [4a-18, (S)-1-(4-((1H-pyrazolopyrimidine-4-yl)oxy)phenyl)-3-(1-phenethyl)urea] |  |
| 21 | C[C@@H](NC(=O)Nc1ccc(Oc2ncnc3[nH]ncc23)cc1)c1ccccc1 [4a-19, (R)-1-(4-((1H-pyrazolopyrimidine-4-yl)oxy)phenyl)-3-(1-phenethyl)urea] |  |
| >50 | CC(C)(C)c1cc(NC(=O)Nc2ccc(Oc3ncnc4[nH]ncc34)cc2)n(-c2ccccc2)n1 [4a-24] |  |
| >50 | CC(C)(C)c1cc(NC(=O)Nc2ccc(Oc3ncnc4[nH]ncc34)cc2)on1 [4a-25] | IC50 (PDGFRβ): < 10 µM; IC50 (EphB2): < 10 µM; IC50 (EphA2): < 10 µM; IC50 (SRC): < 10 µM; IC50 (FGFR1): < 10 µM |
| >50 | CC(C)(C)c1cc(NC(=O)Nc2ccc(Oc3ncnc4[nH]ncc34)cc2)no1 [4a-26] |  |
| >50 | O=C(Nc1ccc(Oc2ncnc3[nH]ncc23)cc1)Nc1cc(C(F)(F)F)on1 [4a-28] |  |
| >50 | CC(C)(C)c1cc(NC(=O)Nc2ccc(Oc3ncnc4[nH]ncc34)c(F)c2)no1 [4a-31] | IC50 (PDGFRβ): < 10 µM; IC50 (EphB2): < 10 µM; IC50 (EphA2): < 10 µM; IC50 (SRC): < 10 µM; IC50 (FGFR1): < 10 µM |
| >30 | O=C(Nc1ccc(Sc2ncnc3[nH]ncc23)cc1)Nc1ccc(C(F)(F)F)cc1 [4c-1] |  |
| >30 | O=C(Nc1ccc(Sc2ncnc3[nH]ncc23)cc1)Nc1cccc(C(F)(F)F)c1 [4c-2] |  |
| >30 | CC(C)(C)c1cc(NC(=O)Nc2ccc(Sc3ncnc4[nH]ncc34)cc2)no1 [4c-3, 1-(4-(1H-pyrazolopyrimidine-4-sulfydryl)phenyl)-3-(5-tert-butylisoxazol-3-yl)urea] |  |

| Compound | Activity inhibition rate Abl/Abl (T315I)(h) (Abl/Abl (T315I)(h)) [%] | further results |
| --- | --- | --- |
| O=C(Nc1ccc(Oc2ncnc3[nH]ncc23)cc1)Nc1cccc(C(F)(F)F)c1 [4a-6] | 79 | IC50 (PDGFRβ): 0.184 µM; IC50 (EphB2): 0.138 µM; IC50 (EphA2): 0.056 µM; IC50 (SRC): 3.01 µM; IC50 (FGFR1): 2.25 µM |
